# Data from US9150559B2, “Anti-proliferative compounds and methods for using the same” (The Board of Trustees of the Leland Stanford Junior …, priority 2011, dated 2015).
# Tests used:
# [1] = system: AML cell lines induced by MLL-AF10 or MLL-AF9; assay: Effects on murine leukemia cell lines established from AMLs induced by MLL fusion oncogenes; format: cell-based
# Procedure: Compound 1 was also tested for its effects on murine leukemia cell lines established from AMLs induced via retroviral transduction of MLL fusion oncogenes (Somervaille, T. C. & Cleary, M. L. Identification and characterization of leukemia stem cells in murine MLL-AF9 acute myeloid leukemia. Cancer Cell 10, 257-268, (2006)).
# [2] = system: human cancer cell lines derived from 9 different tissues; assay: NCI 60-cell line screen, growth inhibition (sulforhodamine B); format: cell-based; conditions: colon and prostate cancer cell lines; 48 hours incubation
# Procedure: FIG. 1. Mean graph representing the sensitivity of 60 human cell lines to compound 1. The vertical line at GI50 (the drug concentration resulting in a 50% growth reduction) represents the mean response to 10 μM compound 1.
# FIG. 2. Growth response of human cell lines grown for 2 days in the presence of increasing concentrations of compound 1.
# The compounds have broad specificity and affect human cell lines of multiple lineages. The growth inhibitory properties were analyzed in human cancer cell lines derived from 9 different tissues in the NCI 60-cell line screen. To perform this assay, cells were plated in 96-well plates and incubated overnight. After 24 hours, compounds were added to the wells and plates. Two plates of each cell line were set aside and fixed in TCA to measure the quantity of cells present at the time drug was added (time 0). The remaining plates were incubated for 48 hours. The assay was terminated by addition of TCA, and the cells were quantified by staining the cellular proteins with sulforhadamine B. The growth inhibition (GI50) was calculated by dividing the difference between treated cells at the beginning and end of the assay by the difference between untreated cells at the beginning and end of the assay.
# [3] = system: MV411-lucifease cell line; assay: In vitro sensitivity of MV411-luciferase cell line; format: cell-based, human
# [4] = Additional toxicity study, subcutaneous twice a day for 10 days; format: in vivo; conditions: mice
# Procedure: An additional toxicity study was performed by injecting mice subcutaneously twice a day with 20 mg/kg compound formulated in 5% DMSO/20% gamma-cyclodextrin or 22.5 mg/kg compound formulated in 10% DMSO/40% captisol. for 10 consecutive days. Animals were also dosed with gamma-cyclodextrin or captisol vehicle alone.
# [5] = Initial pharmacokinetic studies in mice; format: in vivo
# Procedure: Initial pharmacokinetic studies were conducted in mice to inform design of pre-clinical efficacy studies.
# [6] = system: normal murine bone marrow progenitors; assay: Therapeutic window: human B-ALL cell lines versus normal bone marrow progenitors; format: cell-based, human and murine
# [7] = Preliminary toxicity studies, daily injection over 10 days; format: in vivo
# Procedure: Preliminary toxicity studies were performed. Mice were injected (vehicle alone, 8 mg/kg, or 16 mg/kg) daily over a 10 day-period with a 2-day holiday after the first 4 days.
# [8] = Solubility / formulation property; format: physicochemical
# [9] = system: human leukemia cell lines with MLL translocations; assay: Viability of human leukemia (B-ALL) cell lines, cell titer blue assay; format: cell-based; conditions: 72 h, viability 3 days post-treatment, read-out: IC50 (half maximal inhibitory concentration)
# Procedure: (§1) FIG. 3. Inhibition of human B-ALL cell lines treated with compound. Cell lines were treated with increasing concentrations of compound and assessed for viability 3 days post-treatment by cell titer blue assay.
# (§2) The majority of human leukemia cell lines with MLL translocations (3/4) were inhibited more potently than non-MLL cell lines (FIG. 3); although most non-MLL cells lines (4/6) were still sensitive to the compounds. […] Compound 1 also has inhibitory effects on primary human patient ALL samples with an IC50 of 4-20 nM.
# [10] = system: cells lines with other translocations (E2A-PBX, E2A-HLF, TEL-PDGFRB); assay: as above; format: cell-based; conditions: read-out: IC50 (half maximal inhibitory concentration)
# Procedure: as §1, §2
# [11] = system: primary human patient ALL samples; assay: Inhibition of primary human patient ALL samples; format: cell-based
# Procedure: as §2
# [12] = system: human and mouse leukemia cell lines; assay: Apoptosis (annexin V and propidium iodide staining) after a single treatment; format: cell-based
# Source text: Compound 1 induced death of human and mouse leukemia cell lines by apoptosis (annexin V and propidium iodide staining) within 3 days of a single treatment, indicating a cytotoxic as opposed to cytostatic effect.
# [13] = system: MLL leukemia cell lines (RS411-MLL-AF4; HB-MLL-ENL) and control cells (REH-TEL-AML); assay: Cell-based high-throughput phenotypic screen, cell viability by fluorescent indicator dye; design: species or system human; conditions: 2 days after addition of compounds
# Procedure: Cell viability was assessed using a fluorescent indicator dye at 2 days after addition of compounds.
compound,measurement,setting,value
Cc1ccc(S(=O)(=O)Cc2nc(-c3ccc(C(=O)NCc4cccnc4)cc3)oc2C)cc1 [Compound 1],sensitivity of murine AML cell lines,[1],highly sensitive
same,growth inhibitory activity (GI50) in NCI 60-cell line screen,[2],particularly high activity
same,IC50,"[3]; Homo sapiens, MV411-luciferase cell line",10 nM
same,IC100,"[3]; MV411-luciferase cell line, printed with (±20 nM)",25 nM
same,effect of pre-incubation with FBS on potency,[3]; pre-incubation of compound with FBS prior to cell treatment in vitro,no effect on potency
same,nephrotoxicity,"[4]; gamma-cyclodextrin formulation, 20 mg/kg s.c. twice a day",No nephrotoxicity was observed
same,"toxic side effects (histological tissue morphology, serological liver and kidney function tests)","[4]; s.c. twice a day, 20 mg/kg (5% DMSO/20% gamma-cyclodextrin) or 22.5 mg/kg (10% DMSO/40% captisol)",No toxic side effects were observed
same,compound remaining in plasma,[5]; at 24 hours,almost no compound remained
same,half-life,"[5]; mouse, plasma, 16 mg/kg i.p. or s.c. (10% DMSO/40% captisol), 25 mg/kg i.p., s.c., oral (5% DMSO/20% gamma-cyclodextrin)",~1.5 h
same,absorption into plasma,[5]; single intra-peritoneal or subcutaneous injection 16 mg/kg,quickly absorbed in plasma
same,sensitivity of human B-ALL cells versus normal murine bone marrow progenitor cells,[6],differential sensitivity
same,"tolerability (distress, body weight reduction)","[7]; mice, 8 or 16 mg/kg daily over 10 days with 2-day holiday",All but one animal tolerated dosing
same,nephrotoxicity,"[7]; mice, captisol formulation, also seen in animals treated with vehicle only",Mild nephrotoxicity
same,cardiotoxicity,"[7]; mice, high-dose group (16 mg/kg)",Severe cardiotoxicity in one animal and mild cardiotoxicity in another animal
same,MTD or lethal dose,"[7]; mouse, in vivo",not achieved
same,solubility,[8],sparingly soluble
same,IC50,[9],1 to 10 nM
same,IC50,[10],10 to 20 nM
same,IC50,[11],4 to 20 nM
same,kinetics of cell death: completion,[12]; after treatment,48 h
same,kinetics of cell death: initiation,[12]; after treatment,24 h
same,time to death by apoptosis,"[12]; single treatment, annexin V and propidium iodide staining",≤ 3 days
"CC(=O)[C@]1(O)Cc2c(O)c3c(c(O)c2[C@@H](O[C@H]2C[C@H](N)[C@H](O)[C@H](C)O2)C1)C(=O)c1ccccc1C3=O [idarubicin, reference compound]",cell viability in high-throughput screen,[13],reduced viability of all cell lines
same,sensitivity of human B-ALL cells versus normal murine bone marrow progenitor cells,[6],overlapping potency
